Data on seven molecules can be found in patent publication US6372297B1, “Wood preservative oxathiazines” (Uniroyal Chemical Company, Inc., priority 1993, dated 2002).

Each structure is given as a SMILES string. A value given as a limit tells only on which side of the number the result lay.

One test concerns Debaryomyces hansenii. Description: Wood preservative efficacy against bacteria and yeasts, tryptose agar plates. Format: cell-based. Further details: key: 0 = growth equal to control, 1 = inhibition, 2 = no growth. Here is the method: Compositions were prepared by dissolving the compounds shown in Table 1 in 50% ethanol and further diluting with sterile distilled water. […] After cooling, the medium was inoculated with the bacteria listed below. After sufficient growth of the untreated cultures, the compounds were evaluated using the following rating system: 0=growth equal to control 1=inhibition of growth by the compound 2=no growth under the influence of the compound. In this Table, the higher numbers are the most preferred species. Debaryomyces hansenii (yeast)

For another test, the system named is Aspergillus niger. Briefly: Control of molds and blue stain fungi in stick test (beech sticks). The following applies: minimum concentration producing a score less than or equal to 1; dosages 250-5000 ppm. Here is the method: (§1) The compounds shown in Table 1 were dissolved in 50% ethanol and a dilution series was made using the same solvent. In 25 ml of each dilution, one oven-dried beech stick (73×18×2 mm) was drenched until saturated.
(§2) Test dosages were 50, 100, 250, 500, and 1000 ppm for blue stain fungi which were Aureobasidium pullulans and Sclerophoma pithyophila. Test dosages for the molds used (Trichoderma viride, Aspergillus niger) were 250, 500, 1000, 2500, and 5000 ppm.
(§3) After three hours the test solution was poured off and each stick was allowed to dry in a sterile laminar air flow. In each Petri dish one stick was placed on malt agar previously seeded with inoculum. Two drops of fungal or spore suspension were pipetted on the upper surface of the stick. The Petri dishes were then incubated at 22° C. and 90% relative humidity. The treated sticks were evaluated after sufficient growth of the fungus on the untreated control sticks. The following score system was used to rate the effectiveness of the compounds:
(§4) 0=stick free of fungal growth
(§5) 1=traces of fungal growth on stick
(§6) 2=slight fungal growth (5 to 25% of the surface covered)
(§7) 3=moderate fungal growth (25 to 50% of the surface covered)
(§8) 4=vigorous fungal growth (greater than 50% of the surface covered).
(§9) For purposes of comparison of these compounds, these values were converted to threshold ranges. The threshold value in this system is defined as the minimum concentration of a particular compound which produces a score less than or equal to 1.

Another test relates to Aureobasidium pullulans. The test is described as above. The following applies: minimum concentration producing a score less than or equal to 1; dosages 50-1000 ppm. Here is the method: as §1, §2, §3, §4, §5, §6, §7, §8, §9
The test system of a further test is Sclerophoma pithyophila. The description is as above. The following applies: minimum concentration producing a score less than or equal to 1; dosages 50-1000 ppm. As for the experimental part: as §1, §2, §3, §4, §5, §6, §7, §8, §9
For a further test, the system named is Trichoderma viride. The test is described as above. To be noted: minimum concentration producing a score less than or equal to 1; dosages 250-5000 ppm. As for the experimental part: as §1, §2, §3, §4, §5, §6, §7, §8, §9
A further test deals with Coniophora puteana. Briefly: Activity against wood-rotting fungi, weight loss of impregnated wood blocks. The following applies: eight weeks at 22° C. and 70% relative humidity. As for the experimental part:
(§10) Sapwood blocks (50×20×6 mm) of Scots pine (Pinus sylvestris) and beech (Fagus sylvatica) were oven-dried at 104° C. The blocks were cooled, weighed, and impregnated with the test compound, by a vacuum treatment. Each concentration of the test compounds was applied to 7 replicates. By reweighing after each treatment, the uptake of active ingredient was calculated. Badly treated wood was discarded. For fixation of the active compound, the treated blocks were kept in a closed container for two weeks. The container was opened and the wood was dried for two more weeks. The test blocks were sterilized by gamma-irradiation (1.2 Mrad). Each treated block was placed on a mesh in an inoculated Petri dishes of malt agar, with an untreated (control) block. All the blocks were exposed to fungal attack for eight weeks at 22° C. and 70% relative humidity. At the end of the incubation period, the blocks were freed from adhering mycelium, oven dried at 104° C., allowed to cool, and weighed. The percentage weight loss of each block was calculated. Invalid results, due to waterlogging or insufficient moisture content, were not taken into account. The average weight loss of the treated blocks compared to the control blocks appears in Table 8.

The test system of the next test is Coriolus versicolor. The test is described as above. The following applies: eight weeks at 22° C. and 70% relative humidity. As for the experimental part: as §10
Test [1] relates to blue-stain fungi and molds. Briefly: Activity against blue-stain fungi and molds on a stick test on vermiculite (paint film). Further details: key to Surface score of wooden sticks treated with paint formulation, C. cladosporioides / Surface score of wooden sticks treated with paint formulation, P. purpurogenum / Surface score of wooden sticks treated with paint formulation, P. violacea / Surface score of wooden sticks treated with paint formulation, R rubra (y) / Surface score of wooden sticks treated with paint formulation, S. chartarum / Surface score of wooden sticks treated with paint formulation, A. versicolor / Surface score of wooden sticks treated with paint formulation, A. pullulans: 0: No growth; Trace of growth of up to 1% coverage of the test inoculated area; 2: Growth covering between 1 and 10% of the inoculated test area; Growth covering between 10 and 30% of the inoculated test area; 4: Growth covering between 30 and 70% of the inoculated test area; 5: Growth covering more than 70t of the inoculated test area. To be noted: 12 weeks on vermiculite; for Surface score of wooden sticks treated with paint formulation, R rubra (y): R rubra (yeast). The essentials: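 Painted, γ-sterilised beech sticks dipped in spore suspensions of each fungus, then held on moist vermiculite for 12 weeks. Surface fungal growth scored visually on a 0 (none) to 5 (over 70% of inoculated area) scale.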

The mark [2] stands for this setting: higher treatment level, uptake 1271-1534 g.a.i./m3, control blocks lost 20-37%.
The mark [3] stands for this setting: lower treatment level, uptake 526-582 g.a.i./m3, control blocks lost 17-42%.
[4] abbreviates: higher treatment level, uptake 1136-1222 g.a.i./m3, control blocks lost 26-44%.
The mark [5] stands for this setting: lower treatment level, uptake 450-496 g.a.i./m3, control blocks lost 29-38%.

In the case of `C[S+]1CCON=C1c1ccc(Cl)cc1` (stereo not shown) [Compound 1], the “Score of bactericidal activity, D. hansenii” value (“Score of bactericidal activity” for short) in the test on Debaryomyces hansenii (10 ppm in tryptose agar) and in the test on Debaryomyces hansenii (100 ppm in tryptose agar) was 2 each time. The “Threshold value in stick test, A[…]” value in the test on Aspergillus niger was 1000-2500 ppm. Also, the “Threshold value in stick test, AUREOBASIDIUM PULLULANS” value in the test with Aureobasidium pullulans is listed as over 1000 ppm. Besides, the “Threshold value in stick test, SCLEROPHOMA PYTHIOPHILA” value in the test on Sclerophoma pithyophila is listed as 100-250 ppm. In addition, the “Threshold value in stick test, TRICHODERMA VIRIDE” value in the test on Trichoderma viride is reported as 2500-5000 ppm.
In the case of `[O-][S+]1CCON=C1c1ccc(Cl)c(Cl)c1` (stereo not shown) [Compound 4], the “Score of bactericidal activity” value with Debaryomyces hansenii (10 ppm in tryptose agar) and in the test with Debaryomyces hansenii (100 ppm in tryptose agar) was 2 throughout. Besides, the “Threshold value in stick test, A[…]” value with Aspergillus niger is reported as 250-500 ppm. The “Threshold value in stick test, AUREOBASIDIUM PULLULANS” value in the test with Aureobasidium pullulans was 500-1000 ppm. The “Threshold value in stick test, SCLEROPHOMA PYTHIOPHILA” value in the test on Sclerophoma pithyophila is recorded as 50-100 ppm. In the test on Trichoderma viride, the “Threshold value in stick test, TRICHODERMA VIRIDE” value is 500-1000 ppm. Further, the “% weight loss, treated blocks (Coniophora)” value (“% weight loss … (Coniophora)” for short) in the test on Coniophora puteana (setting [2]) and in the test on Coniophora puteana (setting [3]) was 0.3% each time. For the same molecule, the “% weight loss, treated blocks (Coriolus)” value with Coriolus versicolor (setting [4]) and with Coriolus versicolor (setting [5]) was 35% in each case.
On to `[O-][S+]1CCON=C1c1cccs1` (stereo not shown) [Compound 8], for which the “Score of bactericidal activity” value in the test on Debaryomyces hansenii (10 ppm in tryptose agar) came to 2. Besides, the “Score of bactericidal activity” value with Debaryomyces hansenii (100 ppm in tryptose agar) turned out to be 2. The “Threshold value in stick test, A[…]” value in the test on Aspergillus niger is given as 250-500 ppm. For the same molecule, the “Threshold value in stick test, AUREOBASIDIUM PULLULANS” value in the test with Aureobasidium pullulans is 250-500 ppm. Also, the “Threshold value in stick test, SCLEROPHOMA PYTHIOPHILA” value in the test with Sclerophoma pithyophila is 50-100 ppm. For the same molecule, the “Threshold value in stick test, TRICHODERMA VIRIDE” value in the test on Trichoderma viride is on record as 500-1000 ppm. The “% weight loss … (Coniophora)” value in the test on Coniophora puteana (setting [2]) came out at 0.7%. Also, the “% weight loss … (Coniophora)” value in the test with Coniophora puteana (setting [3]) stood at 0.9%. In the test on Coriolus versicolor (setting [4]), the “% weight loss, treated blocks (Coriolus)” value came to 3.5%. The “% weight loss, treated blocks (Coriolus)” value in the test with Coriolus versicolor (setting [5]) came to 24%. Besides, in test [1] (0.15% a.i. in paint), the “Surface score of wooden sticks treated with paint formulation, A. pullulans” value (shortened to “Surface score … A. pullulans”) came to 0; the “Surface score of wooden sticks treated with paint formulation, A. versicolor” value (“Surface score … A. versicolor” below) worked out at 0; the “Surface score of wooden sticks treated with paint formulation, C. cladosporioides” value (shortened to “Surface score … C. cladosporioides”) amounted to 0; the “Surface score of wooden sticks treated with paint formulation, P. purpurogenum” value (from here on “Surface score … P. purpurogenum”) is recorded as 0. In test [1] (0.15% a.i. in paint), the “Surface score of wooden sticks treated with paint formulation, P. violacea” value (from here on “Surface score … P. violacea”) was 4 (Growth covering between 30 and 70% of the inoculated test area); the “Surface score of wooden sticks treated with paint formulation, R rubra (y)” value (from here on “Surface score of wooden sticks treated … (y)”) is listed as 1 (Trace of growth of up to 1% coverage of the test inoculated area); the “Surface score of wooden sticks treated with paint formulation, S. chartarum” value (from here on “Surface score … S. chartarum”) amounted to 0; the “Surface score of wooden sticks treated with paint formulation, U. atrum” value (shortened to “Surface score … U. atrum”) is recorded as 1 (Trace of growth of up to 1% coverage of the test inoculated area). In addition, in test [1] (0.3% a.i. in paint), the “Surface score … A. pullulans” value was 0; the “Surface score … A. versicolor” value was found to be 0; the “Surface score … C. cladosporioides” value amounted to 0; the “Surface score … P. purpurogenum” value is given as 0. In test [1] (0.3% a.i. in paint), the “Surface score … P. violacea” value was determined as 0; the “Surface score of wooden sticks treated … (y)” value was 1 (Trace of growth of up to 1% coverage of the test inoculated area); the “Surface score … S. chartarum” value is given as 0; the “Surface score … U. atrum” value is given as 1 (Trace of growth of up to 1% coverage of the test inoculated area).
As to `CC(=O)c1ccc(C2=NOCC[S+]2[O-])cc1` (stereo not shown) [Compound 14], the “Score of bactericidal activity” value is recorded as 0 with Debaryomyces hansenii (10 ppm in tryptose agar) and 2 in the test with Debaryomyces hansenii (100 ppm in tryptose agar).
In the case of `C[S+]1CCON=C1c1cc(Cl)cc(Cl)c1` (stereo not shown) [Compound 19], the “Threshold value in stick test, A[…]” value with Aspergillus niger is listed as 250-500 ppm. The “Threshold value in stick test, AUREOBASIDIUM PULLULANS” value with Aureobasidium pullulans is reported as 250-500 ppm. In the test on Sclerophoma pithyophila, the “Threshold value in stick test, SCLEROPHOMA PYTHIOPHILA” value was 250-500 ppm. The “Threshold value in stick test, TRICHODERMA VIRIDE” value in the test on Trichoderma viride is recorded as under 250 ppm. The “% weight loss … (Coniophora)” value in the test with Coniophora puteana (setting [2]) is −0.3%; with Coniophora puteana (setting [3]), 0.9%. Also, the figures for the “% weight loss, treated blocks (Coriolus)” value with Coriolus versicolor (setting [4]) and in the test with Coriolus versicolor (setting [5]) were 87% and 35%, respectively.
For the molecule `C[S+]1CCON=C1c1ccc(C(F)(F)F)cc1` (stereo not shown) [Compound 25], the “Threshold value in stick test, A[…]” value in the test with Aspergillus niger is on record as under 250 ppm. Moreover, the “Threshold value in stick test, AUREOBASIDIUM PULLULANS” value in the test with Aureobasidium pullulans is 250-500 ppm. Moreover, in the test with Sclerophoma pithyophila, the “Threshold value in stick test, SCLEROPHOMA PYTHIOPHILA” value was 50-100 ppm. Besides, the “Threshold value in stick test, TRICHODERMA VIRIDE” value in the test on Trichoderma viride is recorded as under 250 ppm. Further, the “% weight loss … (Coniophora)” value in the test with Coniophora puteana (setting [2]) is given as −0.8%; in the test on Coniophora puteana (setting [3]) it was −0.7%. For the same molecule, the “% weight loss, treated blocks (Coriolus)” value in the test on Coriolus versicolor (setting [4]) was 21%; in the test with Coriolus versicolor (setting [5]), 37%.
`O=S1(=O)CCON=C1c1cccs1` [Compound 34]: in test [1] (0.15% a.i. in paint), the “Surface score … A. pullulans” value turned out to be 0; the “Surface score … A. versicolor” value was 0; the “Surface score … C. cladosporioides” value was 0; the “Surface score … P. purpurogenum” value is 4 (Growth covering between 30 and 70% of the inoculated test area). In test [1] (0.15% a.i. in paint), the “Surface score … P. violacea” value was 4 (Growth covering between 30 and 70% of the inoculated test area); the “Surface score of wooden sticks treated … (y)” value was 3 (Growth covering between 10 and 30% of the inoculated test area); the “Surface score … S. chartarum” value is 1 (Trace of growth of up to 1% coverage of the test inoculated area); the “Surface score … U. atrum” value is 3 (Growth covering between 10 and 30% of the inoculated test area). In test [1] (0.3% a.i. in paint), the “Surface score … A. pullulans” value was 0; the “Surface score … A. versicolor” value is on record as 0; the “Surface score … C. cladosporioides” value turned out to be 0; the “Surface score … P. purpurogenum” value is 1 (Trace of growth of up to 1% coverage of the test inoculated area). Moreover, in test [1] (0.3% a.i. in paint), the “Surface score … P. violacea” value is on record as 1 (Trace of growth of up to 1% coverage of the test inoculated area); the “Surface score of wooden sticks treated … (y)” value came to 0; the “Surface score … S. chartarum” value is recorded as 0; the “Surface score … U. atrum” value was 1 (Trace of growth of up to 1% coverage of the test inoculated area).
